Test results as given in patent US20060263760A1, “Screening method of substance with antidepressant action” (THE UNIVERSITY OF TOKYO, priority 2005, published 2006).

Tested on: nerve cells in hippocampus CA1 region of hippocampus sections
Assay: long-term potentiation of excitatory postsynaptic potential (EPSP) in hippocampus sections, accumulated potential with single glass electrode
Type: cell-based, rat
Details: for EPSP reaction (ratio of largest slope value of accumulated potential to basal slope value defined as 100%): read 60 minutes after stimulation
Protocol: A specific example of the assessment of substances with antidepressant actions by the screening method is described below. At the cell preparation step in the Example, the brain hippocampus of an adult rat was cut vertically along the longitudinal axis using vibratome (DSK ZERO1, manufactured by DOUSAKA EM K.K), to prepare plural longitudinal cross- sectional sections of a thickness of 400 μm. In this Example, a part of the hippocampus sections is prepared as a candidate substance treatment group, while another part of the hippocampus sections is prepared as a control treatment group and an additional part of the hippocampus sections is prepared as non-treatment group. These hippocampus sections were immersed in an artificial cerebrospinal fluid sufficiently saturated with a mixture gas of oxygen and carbon dioxide (95% oxygen gas, 5% carbon dioxide gas) and left to stand at room temperature for 1.5 hours or more under the purge of the mixture gas from the above over the hippocampus sections. Thereafter, the electrophysiological response was assayed as described below. As the artificial cerebrospinal fluid, an aqueous solution containing 124 mM NaCl, 1.25 mM NaH2PO4.2H2O, 5 mM KCl, 2 mM MgSO4.7H2O, 2 mM CaCl2, 22 mM NaHCO3, and 10 mM glucose was used. […] At the cell preparation step, additionally, the presynaptic fibers in the CA1 regions of the hippocampus sections were repeatedly stimulated at an interval of 20 seconds, using the stimulation electrode, while excitatory postsynaptic potential induced by the electric stimulation was recorded as accumulated potential over about 30 minutes. […] Therefore, it was determined to assess the dimension of the slope in the part M with the most rapid change of the accumulated potential on the stimulation [namely, the largest slope on the earlier side of the assay time period of accumulated potential waveform (on the left side)] […]

C[C@]12CC[C@@H]3c4ccc(O)cc4CC[C@H]3[C@@H]1CC[C@@H]2O [estradiol]
EPSP reaction (ratio of largest slope value of accumulated potential to basal slope value defined as 100%) (estradiol 1 nM together with corticosteron 1 μM perfused 30 minutes before 100-Hz high-frequency stimulation): about 130%

C[C@]12C[C@H](O)[C@H]3[C@@H](CCC4=CC(=O)CC[C@@]43C)[C@@H]1CC[C@@H]2C(=O)CO [corticosteron]
reduction of the level of the long-term potentiation [dimension (%) of EPSP reaction] (contact to corticosteron 1 μM versus non-treatment group, 60 minutes after high-frequency stimulation): about 20%
EPSP reaction (ratio of largest slope value of accumulated potential to basal slope value defined as 100%) (corticosteron 1 μM alone perfused 30 minutes before 100-Hz high-frequency stimulation, non-treatment group about 130%): about 110%
